In brackets after ≈: the same amount, converted by molar mass. Where two headings read alike, the source gives them in different places.
Legend:
[1] = biological target: T1, hA1AR (Homo sapiens, UniProt P30542); assay: Radioligand binding competition, [3H]DPCPX, membranes from CHO-A1 cells; conditions: 1 μM, [3H]DPCPX, human CHO cells, n = 2
T1 sequence (P30542 1-326): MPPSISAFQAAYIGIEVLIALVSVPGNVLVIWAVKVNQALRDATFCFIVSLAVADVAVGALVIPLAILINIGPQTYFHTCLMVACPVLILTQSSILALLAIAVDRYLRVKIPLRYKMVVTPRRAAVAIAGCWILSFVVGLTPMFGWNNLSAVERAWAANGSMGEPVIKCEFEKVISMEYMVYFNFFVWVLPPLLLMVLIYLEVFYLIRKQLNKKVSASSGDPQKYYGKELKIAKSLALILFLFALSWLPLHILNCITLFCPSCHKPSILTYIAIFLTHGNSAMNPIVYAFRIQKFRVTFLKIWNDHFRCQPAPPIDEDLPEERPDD
How it was run: (§1)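 Racemates, plus selected enantiomers after chiral resolution, were tested at 25 °C, with a 60 min incubation for one subtype and 30 min for others. Non-specific binding was defined with 10 μM or 100 μM R-PIA. Bound radioactivity was counted after washing and filtration.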

[2] = biological target: T2, hA2BAR (Homo sapiens, UniProt P29275); assay: Radioligand binding competition, [3H]DPCPX, membranes from HEK-293-A2B cells; design: Exp. dG: unit not given here; conditions: for Ki: read-out: Ki hA2B; for Exp. dG: experimental binding free energy, Supplementary Table S3, unit not given (errors in kcal/mol)
T2 construct: host or cells: HEK-293 (HEK-293-A2B) cell membranes
T2 sequence (P29275 1-332): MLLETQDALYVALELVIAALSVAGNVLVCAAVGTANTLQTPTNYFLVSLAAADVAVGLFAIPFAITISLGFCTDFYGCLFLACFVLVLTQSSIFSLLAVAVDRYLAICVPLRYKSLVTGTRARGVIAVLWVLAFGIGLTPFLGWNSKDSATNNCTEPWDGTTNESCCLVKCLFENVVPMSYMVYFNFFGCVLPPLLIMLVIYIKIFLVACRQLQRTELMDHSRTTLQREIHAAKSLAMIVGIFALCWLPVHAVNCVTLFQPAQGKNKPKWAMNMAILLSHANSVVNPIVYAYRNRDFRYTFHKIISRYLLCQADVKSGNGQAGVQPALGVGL
How it was run: as §1

[3] = biological target: T3, hA3AR (Homo sapiens, UniProt P0DMS8); assay: Radioligand binding competition, [3H]NECA, membranes from HeLa-A3 cells; conditions: 1 μM, [3H]NECA, human HeLa cells, n = 2
T3 construct: expressed in transfected cells; host or cells: HeLa (HeLa-A3) cell membranes
T3 sequence (P0DMS8 1-318): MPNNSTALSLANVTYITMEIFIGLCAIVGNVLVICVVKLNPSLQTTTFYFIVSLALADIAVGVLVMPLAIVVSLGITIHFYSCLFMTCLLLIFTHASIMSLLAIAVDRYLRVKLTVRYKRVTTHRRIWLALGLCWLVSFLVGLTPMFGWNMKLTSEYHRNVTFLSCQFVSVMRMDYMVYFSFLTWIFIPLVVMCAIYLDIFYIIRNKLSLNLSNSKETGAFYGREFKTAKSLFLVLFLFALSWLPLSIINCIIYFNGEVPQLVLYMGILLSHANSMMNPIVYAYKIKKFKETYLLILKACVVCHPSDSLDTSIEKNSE
How it was run: as §1

[4] = biological target: T4, A2BAR (Homo sapiens, UniProt P29275); assay: Cellular impedance label-free assay (xCELLigence) in A2BAR-SNAP cells; type: cell-based; conditions: compound 1 μM, NECA 1 μM, 45 min, n = 4
T4 construct: expressed in transfected cells; host or cells: HEK-293 T cells permanently expressing pRK5-A2BAR^SNAP
T4 sequence (P29275 1-332): T2 sequence (P29275 1-332)
Source text: To further evaluate the ability of 16b, 16j, 16r, and 16s to preclude A2BAR function in living cells, we took advantage of the cellular impedance label-free method, a widely accepted morphological and functional biosensor of cell status.[39] Accordingly, whole-cell NECA-mediated impedance responses of A2BAR^SNAP cells were monitored in real time in the absence or presence of 16b, 16j, 16r, and 16s.
Figure 4 Blockade of A2BAR-mediated whole-cell label-free responses. (A) Representative example of the impedance signal obtained over the time upon incubation with A2BAR ligands. […] (B) The area under the curve (AUC) derived from the normalized cell index (NCI) shown in (A) was calculated for each condition. Data are expressed as mean ± SEM (n = 4). ***P < 0.001 and **P < 0.01, one-way ANOVA with a Dunnett’s multiple-comparison test when compared to vehicle (Veh).
The xCELLigence RTCA system (Roche) was employed to assess the impact of blocking A2BAR-mediated effects in cellular impedance upon receptor activation, as previously described.[57]−[60] To this end, A2BAR^SNAP cells were growth in 16-well E-plates (Roche), using DMEM supplemented with 1 mM sodium pyruvate, 2 mM L-glutamine, 100 U/mL streptomycin, […] penicillin, and 1.5% (v/v) fetal bovine serum in the presence of 0.5 U/mL of ADA. Of note, wells were previously coated with 50 μL fibronectin (10 μg/mL; Sigma-Aldrich) and the background index for each well was determined with supplemented DMEM (90 μL) in the absence of cells. Subsequently, A2BAR^SNAP cells (90 μL) were plated at a cell density of 10,000 cells/well and grown for 18 h in the RTCA SP device station (Roche) at 37 °C in an atmosphere of 5% CO2. Then, before ligand addition, cell index values were normalized to the same time point using the RTCA software, providing the normalized cell index (NCI). After ligand stimulation, NCI was recorded every 15 s for a total time of at least 45 min. The area under the curve (AUC) for every condition was calculated using GraphPad Prism 9.

[5] = Solubility determination (nephelometry); type: physicochemical; conditions: 1:99 DMSO/PSB buffer, PBS pH 7, 37 °C
Protocol: The solubility of selected compounds was evaluated by following a previously described method.[31] A 10 mM stock solution of the compound was serially diluted in 100% DMSO, and 2.5 μL of this solution was added to a 384-well UV-transparent plate (Greiner) containing 47.5 μL of PBS (pH = 7). The plate was incubated at 37 °C for 4 h, and the light scattering was measured in a NEPHELOstar Plus reader (BMG LABTECH). The data was fitted to a segmented linear regression for measuring the compound solubility.

[6] = displacement of specific [3H]DPCPX binding in human HEK-293 cells, n = 3

% at 1 μM hA1 (percentage displacement of specific binding) [1] [%] | Ki [2, 6] [nM] | Exp. dG [2] | Ki [2] [nM] | % at 1 μM hA3 (percentage displacement of specific binding) [3] [%] | Blockade of NECA-induced changes in cellular impedance (AUC of normalized cell index) [4] | solubility at 4 h [5] [µM] | SMILES
11 | 3.05 ± 0.7 | -11.61 | < 10 | 3 | significantly blocked | 47.5 (≈ 16.9 µg/mL) | CC1=C(C(=O)OC(C)C)C(c2ccco2)n2c(nc3cc(F)ccc32)N1 (centres unmarked) [16b]
35 | 5.03 ± 0.3 | -11.31 | < 10 | 2 | significantly blocked | 23.7 (≈ 8.81 µg/mL) | CC1=C(C(=O)OC(C)C)C(c2ccco2)n2c(nc3cc(Cl)ccc32)N1 (centres unmarked) [16j]
25 | 5.23 ± 0.4 |  | < 10 | 10 | significantly blocked | 70.7 (≈ 29.4 µg/mL) | CC1=C(C(=O)OC(C)C)C(c2ccco2)n2c(nc3cc(Br)ccc32)N1 (centres unmarked) [16r]
